In series [1] the test system is Human Glioblastoma Cancer (U-87MG) xenograft. The series can be described thus: Histopathology of tumor samples with scoring. Format: in vivo, athymic nude mice. Also on record: key to Score: Grade: 1: I; 2: II; 3: III; 4: IV; key to Score: Connective tissue stroma: 1: Minimal Fibrosis; 2: Mild Fibrosis; 3: Moderate Fibrosis; 4: Prominent; key to Score: N:C ratio: 3: High; 2: Low to High; 1: Low; key to Score: Apoptosis / Score: Lipid content: 4: Minimal; 3: Mild; 2: Moderate; 1: Prominent. An excerpt:
The fixed tissues were processed for routine paraffin embedding followed by sectioning (3-6 micron). The sections were stained with hematoxylin and eosin. The prepared slides were examined under microscope by the study pathologist to record histopathological findings in tumor samples, related to capsule formation, cell type, connective tissue stroma, apoptosis, necrosis, lipid content, nucleus-to-cytoplasmic (N:C) ratio, nuclei mitotic figures, tumor grade, and level of differentiation. Each histopathological finding and tumor volume were assigned a score ranging from 1 to 4 (Table 7). The sum of these scores for each sample was used to infer the tumor aggressiveness.

A further series relates to MCF-7 cell line. The series can be described thus: MTT cell viability assay (Example 3). In kind it is cell-based, Human. The conditions noted are these: 48 hours, 2% FBS. The protocol:
MTT assay was carried out to assess the cell viability of MCF-7 cell line after treatment with ASMO APT20TTMG, and, therefore, infer the ASMO1 cytotoxicity. The tetrazolium salt reduction (MTT) method evaluates cell viability by assessing mitochondrial integrity. Viable cells are able to reduce MTT reagent, which is yellow and water-soluble, into an insoluble purple formazan product. Formazan quantification could be measured by a spectrophotometer absorbance at 560 nm. The quantity of formazan is directly proportional to the number of viable cells in the culture.
For this assay, MCF-7 cells were plated in 96-well plates at a density of 1×10^4 cells/well and cultured for 24 hours for adhesion and, subsequently incubated with eight concentrations (0.0078-1 μM) of APT20TTMG (prepared in medium with 2% FBS) for the period of 48 hours. Then, cells were washed with 150 μL/well of PBS and incubated with 100 μL/well of MTT solution prepared in culture medium, at a concentration of 0.5 mg/mL for 3 hours in the incubator. […] Finally, the absorbance of the samples was measured in a plate reader spectrophotometer (Multiskan Spectrum, Thermo Scientific, Waltham, MA, USA), at a wavelength of 560 nm. The absorbance of each sample was used to determine the cell viability after each treatment condition.
In general terms: Formazan colour is commonly taken as a measure of viable cells.

The test system of the next series is cAMP. Nature of the series: ELISA of tumor tissue homogenate. In kind it is in vivo, U-87MG xenograft in animals. The conditions noted are these: vs negative control; lower total expression. The protocol: For the assessment of biomarkers such as cAMP, AKT, GFAP, and TAU by ELISA, the U-87MG tumor tissues dissected out from the animals were homogenized according to kit instructions. The homogenates were centrifugated, and the supernatant was collected and immunoassayed with the Human AKT Protein ELISA Kit (MyByoSouce), cyclic AMP Complete Enzyme-linked Immunosorbent Assay (ELISA) kit (MyByoSouce), Human Glial Fibrillary Acidic Protein (GFAP) ELISA Kit (Cusabio), and Human TAU Protein (TAU) ELISA Kit (MyByoSouce) for the quantitative determination of cAMP, AKT, GFAP, and TAU proteins, respectively.
As shown in FIG. 37A-D, the graphs present the individual values of protein quantification of tumors from 6 animals. (A) cAMP, (B) […], (C) GFAP, and (D) TAU.

The mark [2] stands for this setting: individual animals, G3 APT20TTMG, G2 TMZ.

Values joined by “and” are separate entries in the source; they are usually repeats but may differ in a detail not shown here. Equal entries are not always repeated. “Also recorded” adds a separate entry of the source. d = 2'-deoxy (DNA); m = 2'-O-methyl

With “APT20TTMG: engineered polynucleotide ASMO1, 24 nt, SEQ ID NO: 3 gtccactaacctttcaggccagcg; targeting moieties 5′-GTCCA-3′ and 5′-CG-3′, U1 snRNP recruiting moiety (GTCCACTAACCTTTCAGGCCAGCG; sugars from the 5' end m5 d14 m5, all phosphorothioate, methylation of C and T or U not given here)”, in series [1] (G3 20 mg/kg i.v. vs G1 vehicle), the “total score of histopathological findings and tumor volume” value is “statistically lower scores than G1 group”. Moreover, in series [1] (G3 APT20TTMG 20 mg/kg i.v., G2 TMZ 5 mg/kg p.o.), the “histopathological findings compared to G1 (vehicle control)” value is “less anaplastic features (lower grade) and cellular atypia, with fewer mitotic figures”. Further, the “Histopathological findings: Cell Type” value in series [1] (individual animals) is “Cell Type - Irregular/spindle type cells; also recorded: Cell Type - Polymorphic (i.e., Moderately differentiated”. In series [1] (individual animals, G3), the “Histopathological findings (whole sample)” value is listed as “Only diffused necrotic area was observed” and the “Score: Capsule” value turned out to be 1. Moreover, in series [1] (individual animals, G3 APT20TTMG 20 mg/kg i.v. q3dx7, G2 TMZ 5 mg/kg p.o. qdx21), the “Histopathological findings: Capsule” value is on record as “Capsule - Present; also recorded: Capsule - Absent”. In series [1] (setting [2]), the “Histopathological findings: Apoptosis” value is given as “Apoptosis - Mild; also recorded: Apoptosis - Moderate”, the “Histopathological findings: Connective tissue stroma” value was “Connective tissue stroma - Moderate Fibrosis; also recorded: Connective tissue stroma - Mild Fibrosis”, the “Histopathological findings: Grade” value is “Grade- 2; also recorded: Grade- 1; also recorded: Grade- 3” and the “Histopathological findings: Lipid content” value is reported as “Lipid content - Moderate; also recorded: Lipid content - Minimal; also recorded: Lipid content - Mild”. For the same substance, in series [1] (setting [2]), the “Histopathological findings: Mitotic figures” value was “Mitotic figures - Active (Few in number); also recorded: Mitotic figures - Active (Moderate in number); also recorded: Mitotic figures - Active (Large in number)”, the “Histopathological findings: N:C ratio” value is on record as “N:C ratio - Low to High (Intermediate)”, the “Histopathological findings: Necrosis” value is “Necrosis - Prominent; also recorded: Necrosis - Moderate; also recorded: Necrosis - Mild” and the “Histopathological findings: Nuclei” value is recorded as “Nuclei - Hyperchromatic”. Further, in series [1] (setting [2]), the “Histopathological findings: level of differentiation” value is “Moderately differentiated; also recorded: Well differentiated”; the “Score: Apoptosis” value is 3 (4×) and 2 (2×); the “Score: Connective tissue stroma” value was 3 (4×) and 2 (2×); the “Score: Grade” value is 2 (4×) and 1 and 3. Also, in series [1] (setting [2]), the “Score: Lipid content” value was 3 (3×) and 1 and 2 (2×); the “Score: N:C ratio” value was 1 (3×) and 2 (2×) and 3; the “Score: Volume Tumor” value is 1 (<500) (2×) and 2 (500-1000) (3×) and 3 (1000-1500). Besides, the “cell viability (MTT)” value in the series with MCF-7 cell line (0.5 μM) was found to be 86.4±1.6%. In addition, in the series with MCF-7 cell line (1 μM), the “cell viability (MTT)” value is given as 85±2.7%. In the series on cAMP, the “cAMP in tumor tissue (ELISA)” value was “no statistical difference was observed”.

Source of the values: US20260085315A1, “POLYNUCLEOTIDE COMPOSITIONS AND METHODS FOR TREATMENT OF CANCER” (APTAH BIO, INC., priority 2023, published 2026).
